Key:
[1] = Pharmacokinetic evaluation in CD-1 mouse (oral); assay type: in vivo; conditions: 3.1 mg/kg
Method: Assay purpose: To assay the pharmacokinetics of the compound in CD-1 mouse (oral)
Pharmacokinetic study of oral and intravenously injected compound 4 and reference example 1 (compound 005-1) in CD-1 mouse.
(§1) Compound 4 and reference example 1 (compound 005-1) were mixed with the solvent (10% NMP/60% PEG400/30% H2O). The mixture was vortexed and sonicated to prepare a clarified solution of 0.6 mg/mL. 7- to 10-week old CD-1 male mice were selected, and the candidate compound solution was administered […] at a dose of 3.1 mg/kg.
(§2) Whole blood was collected for a certain period of time to prepare the plasma. Drug concentration was analyzed by LC-MS/MS, and pharmacokinetic parameters were calculated by Phoenix WinNonlin software (Pharsight, USA).

[2] = Plasma protein binding (PPB) assay, C; assay type: in vitro ADME; conditions: cynomolgus monkey, dialysis 4 hr 37° C.
Method: (§3) Assay procedure: 995 μL of blank plasma of various genera were weighed, and 5 μL of assay compound working solution (400 μM) or warfarin working solution (400 μM) was added so that the final concentrations of the assay compound and warfarin in plasma sample were each 2 μM. The samples were mixed thoroughly. The final concentration of DMSO (the organic phase) was 0.5%. 50 μL of the plasma samples of the assay compound and warfarin were pipetted to a sample receiving plate (in triplicate), and the corresponding volume of corresponding blank plasma or buffer was added immediately, so that the final volume in each sample well was 100 μL, wherein the volume ratio of plasma:dialysis buffer was 1:1. 500 μL of stop solution was then added to these samples. These samples were used as T0 samples for determination of recovery and stability. […] All samples were subjected to protein precipitation, and then analyzed by LC/MS/MS. Bound rate and recovery rate of protein were calculated using the following formulae: % Unbound=100*F/T, % Bound=100−% Unbound, % Recovery=100*(F+T)/T0 (wherein F is the peak area ratio of the compound in the dialysate after 4 h of dialysis; T is the peak area ratio of the compound in the plasma after 4 h of dialysis; To is the peak area ratio of the compound in the plasma sample at time zero).

[3] = Plasma protein binding (PPB) assay, D; assay type: in vitro ADME; conditions: dog, dialysis 4 hr 37° C.
Method: as §3

[4] = tested on: TMD8 cells; assay: BTK cell activity assay (CellTiter Glo); assay type: cell-based; conditions: Homo sapiens, Cell Titer Glo, read-out: Relative IC50
Method: 1. Cell Culture and Passage
The medium, trypsin and 1×PBS used in the cell passage process were preheated in a 37° C. water bath. The supernatant was aspirated.
1 mL of trypsin was added to rinse, and the rinse solution was aspirated. 1 mL of trypsin was added, respectively, and cells were digested at 37° C. until the cells fell off. 10 mL of culture medium was added and mixed well. The mixture was centrifuged at 1000 rpm for 5 min and the cells were resuspended in 10 mL of culture medium. 0.7 mL of cell suspension was pipetted into a counting cup and counted on ViCell XR to respectively obtain a cell density of 0.327 million/mL. 1.17 mL of cell suspension and culture medium were weighed, respectively, to dilute the cell suspension. According to the microplate layout diagram below, 100 μL of phosphate buffer was added to the peripheral wells of the 384-well microplate, and 40 μL of cell suspension was added to other wells, respectively. The cell plate was then cultured in an incubator.
2. Dosing • (1) Preparation of compound:
A 9 μL dilution of the compound to be assayed was added to a shallow-well plate for Pod (Labcyte, #LP-0200). The shallow-well plate was centrifuged at 2500 rpm for 30 s. • (2) The cell plate was removed from the incubator. • (3) According to the microplate layout diagram below, compounds were serially diluted 3-fold in Pod to obtain 10 concentrations. The diluted compounds were added to the cell plate at 100 nL, respectively, and then the cell plate was returned to the incubator for culture. • 3. At Day 0, 20 μL of CellTiter Glo was added to the plate with DMSO added, and the mixture was shaken in the dark for 10 minutes. The plate was read with Envision. • 4. At Day 5: CTG was added and the plate was read. • (1) After being cultured for 72 h, 20 μL of Cell Titer Glo was added to the cell plate, and the mixture was shaken in the dark for 10 minutes. • (2) The plate was read with Envision.
Assay Results • 1. Average value and standard deviation of 0% inhibition (DMSO well, MAX) and 100% inhibition (day 0, DMSO) in each group were calculated; • 2. […]

[5] = Plasma protein binding (PPB) assay, H; assay type: in vitro ADME; conditions: human, dialysis 4 hr 37° C.
Method: as §3

[6] = Pharmacokinetic evaluation in CD-1 mouse (intravenous); assay type: in vivo; conditions: male, plasma, IV 0.21 mg/kg
Method: Assay purpose: To assay the pharmacokinetics of the compound in CD-1 mouse (intravenous)
Pharmacokinetic study of oral and intravenously injected compound 4 and reference example 1 (compound 005-1) in CD-1 mouse
as §1, with “1” for “1 (compound 005-1)”, “0.1” for “0.6”, “0.21” for “3.1”
as §2

[7] = AUCu = AUC0-inf * Unbound PPB (Mouse)

AUCu [1, 7]: 0.133 µM·h | AUC(0-inf) ([1]; male, plasma): 33.2 µM·h | Cmax ([1]; male, plasma): 2980 nM | bioavailability ([1]; male, plasma): 71.7% | half-life ([1]; male, plasma): 3.73 h | fraction unbound at 4 h, 2 μM [2]: 0.001 | fraction unbound at 4 h, 2 μM [3]: 0.001 | fraction unbound at 4 h, 2 μM [5]: 0.004 | AUC(0-inf) [6]: 3.11 µM·h | C0 [6]: 562 nM | Vd [6]: 0.85 L/kg | clearance [6]: 2.12 mL/min/kg | half-life [6]: 4.65 h | AUC [6, 7]: 0.0124 µM·h
Compound: CO[C@@H]1C[C@@H](CO)OC[C@@H]1Nc1ncnc2[nH]cc(C(=O)c3ccc(Oc4ccccc4)cc3Cl)c12 [Compound 4]
IC50 [4]: 261 nM
